Results as given in ChEMBL document CHEMBL1139674 (Bioorg Med Chem Lett, 2006).
Blank lines part the entries; values can stand above or below the molecule they belong to.

Experiments:
[1] = test system: KB; test: Cytotoxicity against human KB cells; assay type: cell-based
[2] = Cytotoxicity against human BC cells; assay type: cell-based
[3] = Cytotoxicity against human NCI-H187 cells; assay type: cell-based
[4] = molecular target: Tyrosinase (Agaricus bisporus); test: Inhibition of tyrosinase
[5] = Cytotoxicity against human NCI-H187 cells at 20 ug/ml; assay type: cell-based
[6] = test system: KB; test: Cytotoxicity against human KB cells at 20 ug/ml; assay type: cell-based
[7] = molecular target: T1, Tyrosinase (Agaricus bisporus, UniProt O42713); test: Inhibition of mushroom tyrosinase at 1.2 uM
T1 sequence (O42713 whole entry): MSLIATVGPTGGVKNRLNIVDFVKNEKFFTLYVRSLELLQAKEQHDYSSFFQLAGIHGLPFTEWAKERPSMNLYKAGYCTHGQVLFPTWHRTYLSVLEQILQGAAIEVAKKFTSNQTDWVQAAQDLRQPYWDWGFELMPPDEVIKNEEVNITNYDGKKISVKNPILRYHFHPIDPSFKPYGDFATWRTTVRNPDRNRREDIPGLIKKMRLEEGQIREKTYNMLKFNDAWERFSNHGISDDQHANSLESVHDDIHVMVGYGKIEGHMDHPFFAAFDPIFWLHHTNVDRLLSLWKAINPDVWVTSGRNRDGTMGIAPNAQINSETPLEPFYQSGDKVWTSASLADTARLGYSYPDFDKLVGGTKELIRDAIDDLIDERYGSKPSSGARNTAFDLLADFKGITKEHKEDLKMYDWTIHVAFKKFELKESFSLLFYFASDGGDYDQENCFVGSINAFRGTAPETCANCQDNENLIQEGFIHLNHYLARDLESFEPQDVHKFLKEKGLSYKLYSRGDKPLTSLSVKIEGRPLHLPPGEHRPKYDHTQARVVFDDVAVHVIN

[8] = Cytotoxicity against human BC cells at 20 ug/ml; assay type: cell-based
[9] = molecular target: T1, Tyrosinase; test: Inhibition of mushroom tyrosinase at 2.4 uM
[10] = molecular target: T1, Tyrosinase; test: Inhibition of mushroom tyrosinase at 9.2 uM
[11] = molecular target: T1, Tyrosinase; test: Inhibition of mushroom tyrosinase at 18.4 uM

IC50 [4]: > 100 µM
SMILES: COc1cc(O)cc(/C=C/c2ccc(OC)cc2O)c1
IC50 [1]: 16.5 µM | IC50 [2]: 13.9 µM | IC50 [3]: 33.5 µM

IC50 [4]: > 100 µM
SMILES: COc1cc(O)ccc1/C=C/c1cc(O)cc(O)c1
Activity [5]: < 50% | Activity [6]: < 50% | IC50 [2]: 66.6 µM

IC50 [4]: > 100 µM
SMILES: COc1cc(O)cc(/C=C/c2ccc(O)cc2OC)c1
IC50 [1]: 5.5 µM | IC50 [2]: 10.8 µM | IC50 [3]: 10.9 µM

SMILES: Oc1cc(O)cc(CCc2ccc(O)cc2O)c1
Ki [7]: 4.8 µM | Activity [5]: < 50% | Activity [8]: < 50% | Ki [9]: 5.6 µM | Activity [6]: < 50% | IC50 [4]: 1.6 µM

SMILES: COc1cc(/C=C\c2ccc(OC)cc2OC)cc(OC)c1
IC50 [1]: 0.3 µM | IC50 [2]: 1 µM | IC50 [3]: 0.3 µM

IC50 [4]: > 100 µM
SMILES: COc1cc(CCc2ccc(OC)cc2OC)cc(OC)c1
Activity [5]: < 50% | Activity [8]: < 50% | Activity [6]: < 50%

SMILES: COc1cc(/C=C/c2ccc(OC)cc2OC)cc(OC)c1
IC50 [1]: 8.6 µM | IC50 [2]: 5.6 µM | IC50 [3]: 8 µM

SMILES: COc1cccc2c1C(=O)c1c(O)c3c(c(O)c1C2=O)C[C@@](O)(C(=O)CO)C[C@@H]3O[C@H]1C[C@H](N)[C@H](O)[C@H](C)O1 [DOXORUBICIN]
IC50 [2]: 0.5 µM | IC50 [3]: 0.1 µM

SMILES: Cc1c2ccncc2c(C)c2c1[nH]c1ccccc12 [ELLIPTECINE]
IC50 [1]: 2.4 µM | IC50 [2]: 2.7 µM | IC50 [3]: 1.9 µM

SMILES: Oc1cc(O)cc(/C=C/c2ccc(O)cc2O)c1 [OXYRESVERATROL]
Activity [5]: < 50% | Activity [8]: < 50% | Activity [6]: < 50% | Ki [10]: 22 µM | Ki [11]: 28 µM
